Source: patent publication US8987195B2 (priority 2012, dated 2015)
Where two headings read alike, the source gives them in different places.

Columns and labels:
[1] = test system: HCV genotype 1b replicon; test: HCV replicon assay, genotype 1b replicon EC50; type: cell-based, Hepatitis C virus; conditions: read-out: EC50 [gt-1b]
How it was run: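 Replicon cells (Neo^r, some luciferase:Neo^r fusion); G418 removed at plating; compound dilution series, 24-48 h. Readout: RNA by 32P-probe hybridization/protection or TaqMan, normalized to cyclophilin A RNA, or luciferase. EC50 vs DMSO control, 4-parameter fit.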

[2] = target: HCV NS3/4A protease genotype 1b (Hepatitis C virus genotype 1b, UniProt P26663); test: HCV NS3/4A protease time-resolved fluorescence (TRF) assay, Ki against genotype 1b; type: biochemical
How it was run: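 Ki was converted from fitted IC50 using IC50=Ki(1+[S]/KM) and 25 nM substrate. Protease (genotype 1b 0.2 nM, A156T 0.4 nM, 3a 0.025 nM) and compound were pre-mixed 30 min in pH 7.5 HEPES/NaCl/glycerol/DTT buffer. Cleavage then proceeded 2.5 h at room temperature, detected by time-resolved europium fluorescence (340/615 nm).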

[3] = Hepatitis C virus, HCV replicon, genotype 1b
[4] = IC50 [gt-1b], NS3/4A protease TRF assay, genotype 1b enzyme 0.2 nM
[5] = Hepatitis C virus, genotype 1b replicon
[6] = IC50 [gt-1b] (nM), NS3/4A genotype 1b, enzyme 0.2 nM

Compound: CCc1nc2ccc(OC)cc2c2c1O[C@]1(CC2)C[C@H]2C(=O)N[C@]3(C(=O)NS(=O)(=O)C4(C)CC4)C[C@H]3/C=C\CCCCC[C@H](NC(=O)c3ccn(CC)n3)C(=O)N2C1 [Example 467, (2R,6S,12Z,13aS,14aR,16aS)-5′-ethyl-6-{[(1-ethyl-1H-pyrazol-3-yl)carbonyl]amino}-9′-methoxy-N-[(1-methylcyclopropyl)sulfonyl]-5,16-dioxo-1,1′,2′,6,7,8,9,10,11,13a,14,15,16,16a-tetradecahydrospiro[cyclopropa[e]pyrrolo[1,2-a][1,4]diazacyclopentadecine-2,3′-pyrano[2,3-c]quinoline]-14a(5H)-carboxamide]
- EC50 [1, 3]: 4.71 nM
- IC50 [2, 4]: 0.028 nM

Compound: COc1ccc2nc(C)c3c(c2c1)CC[C@]1(C[C@H]2C(=O)N[C@]4(C(=O)NS(=O)(=O)C5(C)CC5)C[C@H]4/C=C\CCCCC[C@H](Nc4ncccc4C)C(=O)N2C1)O3 [Example 429, (2R,6S,12Z,13aS,14aR,16aS)-9′-methoxy-5′-methyl-N-[(1-methylcyclopropyl)sulfonyl]-6-[(3-methylpyridin-2-yl)amino]-5,16-dioxo-1,1′,2′,6,7,8,9,10,11,13a,14,15,16,16a-tetradecahydrospiro[cyclopropa[e]pyrrolo[1,2-a][1,4]diazacyclopentadecine-2,3′-pyrano[2,3-c]quinoline]-14a(5H)-carboxamide]
- EC50 [1, 3]: 4.28 nM
- IC50 [2, 4]: 0.194 nM

Compound: Cc1nc2cc(F)c(F)cc2c2c1O[C@]1(CC2)C[C@H]2C(=O)N[C@]3(C(=O)NS(=O)(=O)C4(C)CC4)C[C@H]3/C=C\CCCCC[C@H](NC(=O)OCC3(C)CC3)C(=O)N2C1 [Example 223, (1-methylcyclopropyl)methyl [(2R,6S,12Z,13aS,14aR,16aS)-8′,9′-difluoro-5′-methyl-14a-{[(1-methylcyclopropyl)sulfonyl]carbamoyl}-5,16-dioxo-1,1′,2′,5,6,7,8,9,10,11,13a,14,14a,15,16,16a-hexadecahydrospiro[cyclopropa[e]pyrrolo[1,2-a][1,4]diazacyclopentadecine-2,3′-pyrano[2,3-c]quinolin]-6-yl]carbamate]
- EC50 [1, 5]: 11.1 nM
- IC50 [2, 6]: 0.013 nM

Compound: Cc1nc2ccccc2c2c1O[C@]1(CC2)C[C@H]2C(=O)N[C@]3(C(=O)NS(=O)(=O)C4(C)CC4)C[C@H]3/C=C\CCCCC[C@H](NCCc3ccccc3)C(=O)N2C1 [Example 172, (2R,6S,12Z,13aS,14aR,16aS)-5′-methyl-N-[(1-methylcyclopropyl)sulfonyl]-5,16-dioxo-6-[(2-phenylethyl)amino]-1,1′,2′,6,7,8,9,10,11,13a,14,15,16,16a-tetradecahydrospiro[cyclopropa[e]pyrrolo[1,2-a][1,4]diazacyclopentadecine-2,3′-pyrano[2,3-c]quinoline]-14a(5H)-carboxamide]
- EC50 [1, 5]: 7.99 nM
- IC50 [2, 6]: 0.24 nM

Compound: Cc1nc2ccccc2c2c1O[C@]1(CC2)C[C@H]2C(=O)N[C@]3(C(=O)NS(=O)(=O)C4(C)CC4)C[C@H]3/C=C\CCCCC[C@H](NC(=O)O[C@@H]3C[C@H]4CC[C@@H]3C4)C(=O)N2C1 [Example 179, (1R,2R,4S)-bicyclo[2.2.1]hept-2-yl [(2R,6S,12Z,13aS,14aR,16aS)-5′-methyl-14a-{[(1-methylcyclopropyl)sulfonyl]carbamoyl}-5,16-dioxo-1,1′,2′,5,6,7,8,9,10,11,13a,14,14a,15,16,16a-hexadecahydrospiro[cyclopropa[e]pyrrolo[1,2-a][1,4]diazacyclopentadecine-2,3′-pyrano[2,3-c]quinolin]-6-yl]carbamate]
- EC50 [1, 5]: 0.2 nM
- IC50 [2, 6]: 0.012 nM

Compound: Cc1nc2ccccc2c2c1O[C@]1(CC2)C[C@H]2C(=O)N[C@]3(C(=O)NS(=O)(=O)C4(C)CC4)C[C@H]3/C=C\CCCCC[C@H](NC(=O)NC(C)C)C(=O)N2C1 [Example 282, (2R,6S,12Z,13aS,14aR,16aS)-5′-methyl-N-[(1-methylcyclopropyl)sulfonyl]-5,16-dioxo-6-[(propan-2-ylcarbamoyl)amino]-1,1′,2′,6,7,8,9,10,11,13a,14,15,16,16a-tetradecahydrospiro[cyclopropa[e]pyrrolo[1,2-a][1,4]diazacyclopentadecine-2,3′-pyrano[2,3-c]quinoline]-14a(5H)-carboxamide]
- EC50 ([1]; Hepatitis C virus, genotype 1b replicon, HCOOH salt): 43.6 nM
- IC50 ([2]; IC50 [gt-1b] (nM), NS3/4A genotype 1b, enzyme 0.2 nM, HCOOH salt): 0.018 nM

Compound: COc1ccc2nc(C(C)C)c3c(c2c1)[C@H](F)C[C@]1(C[C@H]2C(=O)N[C@]4(C(=O)NS(=O)(=O)C5(C)CC5)C[C@H]4/C=C\CCCCC[C@H](NC(=O)O[C@@H](C)C(C)C)C(=O)N2C1)O3 [Example 419, (2S)-3-methylbutan-2-yl [(1′R,2S,6S,12Z,13aS,14aR,16aS)-1′-fluoro-9′-methoxy-14a-{[(1-methylcyclopropyl)sulfonyl]carbamoyl}-5,16-dioxo-5′-(propan-2-yl)-1,1′,2′,5,6,7,8,9,10,11,13a,14,14a,15,16,16a-hexadecahydrospiro[cyclopropa[e]pyrrolo[1,2-a][1,4]diazacyclopentadecine-2,3′-pyrano[2,3-c]quinolin]-6-yl]carbamate]
- EC50 ([1]; Hepatitis C virus, HCV replicon, genotype 1b, K+ salt): 1.75 nM
- IC50 ([2]; IC50 [gt-1b], NS3/4A protease TRF assay, genotype 1b enzyme 0.2 nM, K+ salt): 0.038 nM

Compound: CC(C)(C)OC(=O)N[C@H]1CCCCC/C=C\[C@@H]2C[C@@]2(C(=O)NS(=O)(=O)C2(C)CC2)NC(=O)[C@@H]2C[C@]3(CCc4c(c(C(F)(F)F)nc5c(Cl)cccc45)O3)CN2C1=O [Example 31, tert-butyl ((2R,6S,13aS,14aR,16aS,Z)-7′-chloro-14a-(((1-methylcyclopropyl)sulfonyl)carbamoyl)-5,16-dioxo-5′-(trifluoromethyl)-1′,2′,3,5,6,7,8,9,10,11,13a,14,14a,15, 16,16a-hexadecahydro-1H-spiro[cyclopropa[e]pyrrolo[1,2-a][1,4]diazacyclopentadecine-2,3′-pyrano[2,3-c]quinolin]-6-yl)carbamate]
- EC50 [1, 5]: 1.56 nM
- IC50 [2, 6]: 0.02 nM

Compound: Cc1ccc2nc(C)c3c(c2c1)CC[C@]1(C[C@H]2C(=O)N[C@]4(C(=O)NS(=O)(=O)C5(C)CC5)C[C@H]4/C=C\CCCCC[C@H](NC(=O)OCC(C)C)C(=O)N2C1)O3 [Example 108, 2-methylpropyl [(2R,6S,12Z,13aS,14aR,16aS)-5′,9′-dimethyl-14a-{[(1-methylcyclopropyl)sulfonyl]carbamoyl}-5,16-dioxo-1,1′,2′,5,6,7,8,9,10,11,13a,14,14a,15,16,16a-hexadecahydrospiro[cyclopropa[e]pyrrolo[1,2-a][1,4]diazacyclopentadecine-2,3′-pyrano[2,3-c]quinolin]-6-yl]carbamate]
- EC50 [1, 5]: 1.23 nM
- IC50 [2, 6]: 0.007 nM

Compound: COc1ccc2nc(C(C)C)c3c(c2c1)CC[C@]1(C[C@H]2C(=O)N[C@]4(C(=O)NS(=O)(=O)C5(C)CC5)C[C@H]4/C=C\CCCCC[C@H](NC(=O)OC4(C)CCC4)C(=O)N2C1)O3 [Example 169, 1-methylcyclobutyl [(2R,6S,12Z,13aS,14aR,16aS)-9′-methoxy-14a-{[(1-methylcyclopropyl)sulfonyl]carbamoyl}-5,16-dioxo-5′-(propan-2-yl)-1,1′,2′,5,6,7,8,9,10,11,13a,14,14a,15,16,16a-hexadecahydrospiro[cyclopropa[e]pyrrolo[1,2-a][1,4]diazacyclopentadecine-2,3′-pyrano[2,3-c]quinolin]-6-yl]carbamate]
- EC50 [1, 5]: 1.53 nM
- IC50 [2, 6]: 0.019 nM

Compound: Cc1nc2ccccc2c2c1O[C@@]1(C[C@H]3C(=O)N[C@]4(C(=O)NS(=O)(=O)C5(C)CC5)C[C@H]4/C=C\CCCCC[C@H](NC(=O)OC4CC(F)(F)C4(F)F)C(=O)N3C1)CC2(F)F (stereo partly drawn) [Example 112, 2,2,3,3-tetrafluorocyclobutyl [(2S,6S,12Z,13aS,14aR,16aS)-1′,1′-difluoro-5′-methyl-14a-{[(1-methylcyclopropyl)sulfonyl]carbamoyl}-5,16-dioxo-1,1′,2′,5,6,7,8,9,10,11,13a,14,14a,15,16,16a-hexadecahydrospiro[cyclopropa[e]pyrrolo[1,2-a][1,4]diazacyclopentadecine-2,3′-pyrano[2,3-c]quinolin]-6-yl]carbamate]
- EC50 [1, 5]: 32 nM
- IC50 [2, 6]: 0.226 nM

Compound: tert-Butyl (2R,6S,13aS,14aR,16aS,Z)-10′-chloro-5′-(difluoromethyl)-9′-methoxy-14a-(1-methylcyclopropylsulfonylcarbamoyl)-5,16-dioxo-1′,2′,3,5,6,7,8,9,10,11, 13a,14,14a,15,16,16a-hexadecahydro-1H-spiro[cyclopropa[e]pyrrolo[1,2-a][1,4]diaza cyclopentadecine-2,3′-pyrano[2,3-c]quinoline]-6-ylcarbamate [Example 27]
- EC50 ([1]; genotype 1b replicon): 10.6 nM
- IC50 ([2]; NS3/4A genotype 1b, enzyme 0.2 nM, read-out: IC50 [gt-1b]): 0.011 nM

Compound: CC(C)(C)OC(=O)N[C@H]1CCCCC/C=C\[C@@H]2C[C@@]2(C(=O)NS(=O)(=O)C2(C)CC2)NC(=O)[C@@H]2C[C@]3(CCc4c(c(C5CC5)nc5ccc6c(c45)OCO6)O3)CN2C1=O [Example 29, tert-butyl (2′R,6′S,13a′S,14a′R,16a′S,Z)-7-cyclopropyl-14a′-(1-methylcyclopropylsulfonylcarbamoyl)-5′,16′-dioxo-3′,5′,6′,7′,8′,9′,10,10′,11,11′,13a′,14′, 14a′,15′,16′,16a′-hexadecahydro-1′H-spiro[[1,3]dioxolo[4,5-f]pyrano[2,3-c]quinoline-9,2′-cyclopropa[e]pyrrolo[1,2-a][1,4]diazacyclopentadecine]-6′-ylcarbamate]
- EC50 [1, 5]: 0.608 nM
- IC50 [2, 6]: 0.021 nM
